# Source: patent US9061984B2 (University of Louisville Research Foundation, Inc., priority 2008, dated 2015)
# Where two headings read alike, the source gives them in different places.
# System: several cell lines (Panel/Cell Line)
# Assay: GI50, TGI and LC50 of compound II-21 for several cell lines (Table 12)
# Conditions: 48-h exposure; for GI50 / CC50: Homo sapiens
structure (smiles),measurement,setting,value
C(=N/Nc1ncnc2sc3c(c12)CCCC3)/c1ccccn1 [II-21],GI50,"NCI-H522, 48 h, Non-Small Cell Lung Cancer, NCI-H522",0.419 µM
same,CC50,"NCI-H522, 48 h, read-out: LC50 (M), Non-Small Cell Lung Cancer, NCI-H522",> 0.0001 M
same,GI50,"NCI/ADR-RES, 48 h, Ovarian Cancer",0.427 µM
same,CC50,"NCI/ADR-RES, 48 h, read-out: LC50 (M), Ovarian Cancer, NCI/ADR-RES",> 0.0001 M
same,GI50,"OVCAR-3, 48 h, Ovarian Cancer, OVCAR-3",0.109 µM
same,CC50,"OVCAR-3, 48 h, read-out: LC50 (M), Ovarian Cancer, OVCAR-3",4.39e-05 M
same,GI50,"OVCAR-4, 48 h, Ovarian Cancer, OVCAR-4",0.431 µM
same,CC50,"OVCAR-4, 48 h, read-out: LC50 (M), Ovarian Cancer, OVCAR-4",> 0.0001 M
same,GI50,"OVCAR-5, 48 h, Ovarian Cancer, OVCAR-5",0.823 µM
same,CC50,"OVCAR-5, 48 h, read-out: LC50 (M), Ovarian Cancer, OVCAR-5",> 0.0001 M
same,GI50,"OVCAR-8, 48 h, Ovarian Cancer, OVCAR-8",0.481 µM
same,CC50,"OVCAR-8, 48 h, read-out: LC50 (M), Ovarian Cancer, OVCAR-8",> 0.0001 M
same,GI50,"RPMI-8226, 48 h, Leukemia, RPMI-8226",0.35 µM
same,CC50,"RPMI-8226, 48 h, read-out: LC50 (M), Leukemia, RPMI-8226",> 0.0001 M
same,GI50,"RXF 393, 48 h, Renal Cancer, RXF 393",0.423 µM
same,CC50,"RXF 393, 48 h, read-out: LC50 (M), Renal Cancer, RXF 393",4.53e-05 M
same,GI50,"SF-268, 48 h, CNS Cancer, SF-268",0.356 µM
same,CC50,"SF-268, 48 h, read-out: LC50 (M), CNS Cancer, SF-268",8.3e-05 M
same,GI50,"SF-295, 48 h, CNS Cancer, SF-295",0.313 µM
same,CC50,"SF-295, 48 h, read-out: LC50 (M), CNS Cancer, SF-295",> 0.0001 M
same,GI50,"SF-539, 48 h, CNS Cancer, SF-539",0.391 µM
same,CC50,"SF-539, 48 h, read-out: LC50 (M), CNS Cancer, SF-539",2.92e-05 M
same,GI50,"SK-MEL-2, 48 h, Melanoma, SK-MEL-2",7.51 µM
same,CC50,"SK-MEL-2, 48 h, read-out: LC50 (M), Melanoma, SK-MEL-2",6.78e-05 M
same,GI50,"SK-MEL-5, 48 h, Melanoma, SK-MEL-5",0.332 µM
same,CC50,"SK-MEL-5, 48 h, read-out: LC50 (M), Melanoma, SK-MEL-5",2.36e-05 M
same,GI50,"SK-MEL-28, 48 h, Melanoma, SK-MEL-28",0.422 µM
same,CC50,"SK-MEL-28, 48 h, read-out: LC50 (M), Melanoma, SK-MEL-28",5.46e-05 M
same,GI50,"SK-OV-3, 48 h, Ovarian Cancer, SK-OV-3",0.41 µM
same,CC50,"SK-OV-3, 48 h, read-out: LC50 (M), Ovarian Cancer, SK-OV-3",> 0.0001 M
same,GI50,"SN12C, 48 h, Renal Cancer",0.426 µM
same,CC50,"SN12C, 48 h, read-out: LC50 (M), Renal Cancer, SN12C",8.1e-05 M
same,GI50,"SNB-19, 48 h, CNS Cancer, SNB-19",0.767 µM
same,CC50,"SNB-19, 48 h, read-out: LC50 (M), CNS Cancer, SNB-19",> 0.0001 M
same,GI50,"SNB-75, 48 h, CNS Cancer, SNB-75",0.585 µM
same,CC50,"SNB-75, 48 h, read-out: LC50 (M), CNS Cancer, SNB-75",4.93e-05 M
same,GI50,"SW-620, 48 h, Colon Cancer, SW-620",0.561 µM
same,CC50,"SW-620, 48 h, read-out: LC50 (M), Colon Cancer, SW-620",5.95e-05 M
same,GI50,"T47D, 48 h, Breast Cancer, T-47D",0.0764 µM
same,CC50,"T47D, 48 h, read-out: LC50 (M), Breast Cancer, T-47D",> 0.0001 M
same,GI50,"TK-10, 48 h, Renal Cancer, TK-10",0.486 µM
same,CC50,"TK-10, 48 h, read-out: LC50 (M), Renal Cancer, TK-10",> 0.0001 M
same,GI50,"U-251, 48 h, CNS Cancer, U251",0.369 µM
same,CC50,"U-251, 48 h, read-out: LC50 (M), CNS Cancer, U251",3.48e-05 M
same,GI50,"UACC-62, 48 h, Melanoma, UACC-62",0.379 µM
same,CC50,"UACC-62, 48 h, read-out: LC50 (M), Melanoma, UACC-62",4.84e-05 M
same,GI50,"UACC-257, 48 h, Melanoma, UACC-257",0.355 µM
same,CC50,"UACC-257, 48 h, read-out: LC50 (M), Melanoma, UACC-257",4.17e-05 M
same,GI50,"UO-31, 48 h, Renal Cancer, UO-31",0.286 µM
same,CC50,"UO-31, 48 h, read-out: LC50 (M), Renal Cancer, UO-31",6.3e-05 M
same,TGI,"Leukemia, CCRF-CEM",0.769 µM
same,TGI,"Leukemia, HL-60(TB)",0.407 µM
same,TGI,"Leukemia, K-562",10.8 µM
same,TGI,"Leukemia, MOLT-4",0.774 µM
same,TGI,"Leukemia, RPMI-8226",12.5 µM
same,TGI,"Leukemia, SR",0.953 µM
same,TGI,"Melanoma, M14",0.599 µM
same,TGI,"Melanoma, MALME-3M",10.3 µM
same,TGI,"Melanoma, MDA-MB-435",25.1 µM
same,TGI,"Melanoma, SK-MEL-2",25.5 µM
same,TGI,"Melanoma, SK-MEL-5",1.72 µM
same,TGI,"Melanoma, SK-MEL-28",16.7 µM
same,TGI,"Melanoma, UACC-62",6.54 µM
same,TGI,"Non-Small Cell Lung Cancer, A549/ATCC",14.9 µM
same,TGI,"Non-Small Cell Lung Cancer, EKVX",20.5 µM
same,TGI,"Non-Small Cell Lung Cancer, HOP-62",17.7 µM
same,TGI,"Non-Small Cell Lung Cancer, HOP-92",31 µM
same,TGI,"Non-Small Cell Lung Cancer, NCI-H23",34.3 µM
same,TGI,"Non-Small Cell Lung Cancer, NCI-H226",16.2 µM
same,TGI,"Non-Small Cell Lung Cancer, NCI-H322M",35 µM
same,TGI,"Non-Small Cell Lung Cancer, NCI-H460",1.73 µM
same,TGI,"Non-Small Cell Lung Cancer, NCI-H522",23.2 µM
same,TGI,"Ovarian Cancer, IGROV1",28.9 µM
same,TGI,"Ovarian Cancer, NCI/ADR-RES",58.1 µM
same,TGI,"Ovarian Cancer, OVCAR-3",14.5 µM
same,TGI,"Ovarian Cancer, OVCAR-4",26.3 µM
same,TGI,"Ovarian Cancer, OVCAR-5",31.4 µM
same,TGI,"Ovarian Cancer, OVCAR-8",>100 µM
same,TGI,"Ovarian Cancer, SK-OV-3",29.2 µM
same,TGI,"Prostate Cancer, DU-145",15.1 µM
same,TGI,"Prostate Cancer, PC-3",71.1 µM
same,TGI,"Renal Cancer, 786-0",0.947 µM
same,TGI,"Renal Cancer, A498",8.81 µM
same,TGI,"Renal Cancer, ACHN",11 µM
same,TGI,"Renal Cancer, CAKI-1",14.8 µM
same,TGI,"Renal Cancer, RXF 393",10.6 µM
same,TGI,"Renal Cancer, SN12C",15.3 µM
same,TGI,"Renal Cancer, TK-10",56.6 µM
same,TGI,"Renal Cancer, UO-31",1.65 µM
